# Measurements as given in patent US8354432B2, “Cyclic derivatives as modulators of chemokine receptor activity” (Bristol-Myers Squibb Company, priority 2006, dated 2013).
# Target: T1, CCR1 (Homo sapiens, UniProt P32246)
# T1 construct: the THP-1 cell line, which expresses the endogenous CCR1 receptor; endogenous in cells; host or cells: THP-1 cells (human monocytic line); the text also allows human PBMC or human monocytes
# T1 sequence (P32246 1-355): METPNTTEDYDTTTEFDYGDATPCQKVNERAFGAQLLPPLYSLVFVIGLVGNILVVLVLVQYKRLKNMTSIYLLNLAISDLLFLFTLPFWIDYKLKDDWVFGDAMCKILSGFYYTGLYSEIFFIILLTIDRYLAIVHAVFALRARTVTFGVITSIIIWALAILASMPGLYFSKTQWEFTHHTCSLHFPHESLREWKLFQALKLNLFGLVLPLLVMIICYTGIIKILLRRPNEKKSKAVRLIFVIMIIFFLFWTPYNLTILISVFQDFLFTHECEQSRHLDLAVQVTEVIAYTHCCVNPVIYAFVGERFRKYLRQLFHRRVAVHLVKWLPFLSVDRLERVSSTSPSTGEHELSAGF
# Test: Antagonism of MIP-1α binding to human THP-1 cells (CCR1 binding)
# Conditions: not given
# Protocol: Antagonism of MIP-1α Binding to Human THP-1 Cells
# Compounds of the present invention have activity in the antagonism of MIP-1α binding to human THP-1 cells described here.
# Millipore filter plates (#MABVN1250) are treated with 100 μl of binding buffer (0.5% bovine serum albumin, 20 mM HEPES buffer and 5 mM magnesium chloride in RPMI 1640 media) for thirty minutes at room temperature. To measure binding, 50 μl of binding buffer, with or without a known concentration of compound, is combined with 50 μl of ^125-I labeled human MIP-1α (to give a final concentration of 50 pM radioligand) and 50 μl of binding buffer containing 5×10^5 cells. Cells used for such binding assays can include the THP-1 cell line, which expresses the endogenous CCR1 receptor, or human peripheral blood mononuclear cells, isolated by Ficoll-Hypaque gradient centrifugation, or human monocytes (Weiner et al., J. Immunol. Methods, 1980, 36, 89). The mixture of compound, cells and radioligand is incubated at room temperature for thirty minutes. Plates are placed onto a vacuum manifold, vacuum applied, and the plates washed three times with binding buffer containing 0.5M NaCl. The plastic skirt is removed from the plate, the plate allowed to air dry, the wells punched out and counted. The percent inhibition of binding is calculated using the total counts obtained in the absence of any competing compound and the background binding determined by addition of 100 nM MIP-1α in place of the test compound.
row,Compound,Ki
1,"COc1cc(N2CCC(C(Cn3nc(C(F)(F)F)c(Cl)c3C)NC(=O)CF)CC2)c(Cl)cc1Cl (racemic) [Example 4p, N-(2-(4-Chloro-5-methyl-3-(trifluoromethyl)-1H-pyrazol-1-yl)-1-(1-(2,4-dichloro-5-methoxyphenyl)piperidin-4-yl)ethyl)-2-fluoroacetamide]",4.3 nM

# Same assay, conditions: 125-I labeled human MIP-1α (50 pM), THP-1 cells expressing endogenous CCR1, room temperature, thirty minutes; read-out: CCR1 Binding Ki (n = 1 unless otherwise noted)
row,Compound,Ki
1,"COc1cc(N2CCC(C(O)Cn3nc(N)c4cccnc43)CC2)ccc1Cl (racemic) [Example 2c, 2-(3-Amino-1H-pyrazolo[3,4-b]pyridin-1-yl)-1-(1-(4-chloro-3-methoxyphenyl)piperidin-4-yl)ethanol]",~2220 nM
2,"COc1cc(N2CCC(C(N)Cn3nc(C(F)(F)F)c(Cl)c3C)CC2)c(Cl)cc1Cl (racemic) [Example 4a, 2-(4-Chloro-5-methyl-3-(trifluoromethyl)-1H-pyrazol-1-yl)-1-(1-(2,4-dichloro-5-methoxyphenyl)piperidin-4-yl)ethanamine]",125 nM
3,"COc1cc(N2CCC(C)(C(O)Cn3nc(C(F)(F)F)c(Cl)c3C)CC2)ccc1Cl (racemic) [Example 11, 1-(1-(4-Chloro-3-methoxyphenyl)-4-methylpiperidin-4-yl)-2-(4-chloro-5-methyl-3-(trifluoromethyl)-1H-pyrazol-1-yl)ethanol]",~1250 nM
4,"COc1cc(N2CCC(C(Cn3nc(C(F)(F)F)c(Cl)c3C)NC(=O)CO)CC2)c(Cl)cc1Cl (centres unmarked) [Example 4i, N-(2-(4-Chloro-5-methyl-3-(trifluoromethyl)-1H-pyrazol-1-yl)-1-(1-(2,4-dichloro-5-methoxyphenyl)piperidin-4-yl)ethyl)-2-hydroxyacetamide]",5.15 ± 1.68 nM
5,N-(1-(1-(4-chloro-3-methoxyphenyl)piperidin-4-yl)-2-(5-methyl-3-(trifluoromethyl)-1H-pyrazol-1-yl)ethyl)-2-hydroxyacetamide [Example 5b],~2200 nM

# Further lines, results first:
row,Ki,Compound
1,3.46 ± 0.48 nM,"COc1cc(N2CCC(C(Cn3nc(C(F)(F)F)c(Cl)c3C)NC(=O)[C@@H](C)O)CC2)c(Cl)cc1Cl (mixture of isomers) [Example 4n, (2R)-N-(2-(4-Chloro-5-methyl-3-(trifluoromethyl)-1H-pyrazol-1-yl)-1-(1-(2,4-dichloro-5-methoxyphenyl)piperidin-4-yl)ethyl)-2-hydroxypropanamide]"
2,156 nM,"COc1cc(N2CCC(C(O)Cn3nc(C(F)(F)F)nc3C)CC2)ccc1Cl (racemic) [Example 2h, 1-(1-(4-Chloro-3-methoxyphenyl)piperidin-4-yl)-2-(5-methyl-3-(trifluoromethyl)-1H-1,2,4-triazol-1-yl)ethanol]"
3,6.8 nM,"COc1cc(N2CCC(C(Cn3nc(C(F)(F)F)c(Cl)c3C)NC(C)=O)CC2)c(Cl)cc1Cl (racemic) [Example 4c, N-(2-(4-Chloro-5-methyl-3-(trifluoromethyl)-1H-pyrazol-1-yl)-1-(1-(2,4-dichloro-5-methoxyphenyl)piperidin-4-yl)ethyl)acetamide]"
4,1020 nM,"COc1cccc(N2CCC(C(O)Cn3nc(C(F)(F)F)c(Cl)c3C)CC2)c1 (racemic) [Example 15b, 2-(4-Chloro-5-methyl-3-(trifluoromethyl)-1H-pyrazol-1-yl)-1-(1-(3-methoxyphenyl)piperidin-4-yl)ethanol]"
5,145 nM,"COc1cc(N2CCC(C(Cn3nc(C(F)(F)F)cc3C)NC(=O)CN)CC2)ccc1Cl (single isomer, unassigned) [Example 5c, 2-amino-N-(1-(1-(4-chloro-3-methoxyphenyl)piperidin-4-yl)-2-(5-methyl-3-(trifluoromethyl)-1H-pyrazol-1-yl)ethyl)acetamide]"
